Results published in patent publication US20240075050A1, “Methods and Compositions for Treating Leucine Rich Repeat Kinase 2 (LRRK2)-Associated Disorder or Condition” (University of Connecticut, priority 2022, published 2024).

Experiments:
Details in all cases: 1 mM, 48 hours
LRRK2 [1] = assay: LRRK2 levels in mouse primary neurons, microglia, astrocytes, Western blot; assay type: cell-based
Method: FIGS. 2A-2T depicts that AICAr, the precursor of ATIC substrate, regulates LRRK2 expression levels and neuronal toxicity. FIGS. 2A and 2B depict the overexpressed LRRK2 levels in HEK 293T cells upon AICAr treatment. HEK293 cells were transfected with MYC-LRRK2 and treated with or without 1 mM AICAr for 48 hours. LRRK2 levels were analyzed by Western blot. FIGS. 2C and 2D depict the LRRK2 expression levels in SH-SY5Y cells upon AICAr treatment. Human neuroblastoma SH-SY5Y cells were treated with or without 1 mM AICAr for 48 hours. LRRK2 expression levels were analyzed by Western blot. FIGS. 2E and 2F depict the overexpressed (3-glucocerebrosidase (GCase) levels upon AICAr treatment. HEK 293T cells were transfected with V5-GCase and treated with or without 1 mM AICAr for 48 hours. GCase levels were analyzed by Western blot. FIGS. 2G-2N depict the LRRK2 expression levels in primary neurons (FIG. 2G and FIG. 2H), microglia (FIG. 2I and FIG. 2J), astrocytes (FIG. 2K and FIG. 2L) and human fibroblasts (FIG. 2M and FIG. 2N) upon AICAr treatment. Mouse primary cortical neurons, microglia, astrocytes or human fibroblasts from a health control were treated with or without 1 mM AICAr for 48 hours. LRRK2 expression levels were analyzed by Western blot. FIGS. 2O and 2P depict the overexpressed LRRK2 WT and pathogenic mutant levels upon AICAr treatment. […] LRRK2 expression levels were analyzed by Western blot. […] One day after injection, striatal tissues near the injection sites were collected and LRRK2 expression levels were analyzed by Western blot. Images were quantified by ImageJ software. […] FIG. 2T depicts the quantification of neuronal viability. Bars indicate the viability (n>100) for each transfection condition expressed as a percent of control neurons (eGFP with pcDNA3.1 empty vector). Data represent the mean±SEM from three independent experiments with n>100 cells quantified in each experiment. *p<0.05, ***p<0.001, ****p<0.0001 by one-way ANOVA followed by a Tukey's post hoc test.

DCP1A = DCP1A expression levels in SH-SY5Y cells, Western blot; assay type: cell-based, human
Method: FIGS. 6A-6E depict that the decapping enzyme complex DCP1/2 is involved in LRRK2 mRNA decay. FIGS. 6A and 6B depict the DCP1A and DCP2 expression levels upon AICAr treatment. SH-SY5Y cells were treated with or without 1 mM AICAr for 48 hours. DCP1A and DCP2 expression levels were analyzed by Western blot. Images were quantified by ImageJ software. Data are mean±SEM, n=3 independent experiments. **p<0.01 by Student's t tests. FIGS. 6C and 6D depict the LRRK2 expression levels upon DCP1A or DCP2 overexpression. SH-SY5Y cells were transduced with lentiviruses carrying Flag-DCP1A or Flag-DCP2 for 48 hours. LRRK2 expression levels were analyzed by Western blot. Images were quantified by ImageJ software. Data are mean±SEM, n=3 independent experiments. *p<0.05 by Student's t tests. FIG. 6E depict LRRK2 mRNA decapping by DCP1A and DCP2. Recombinant DCP1A and DCP2 proteins were purified from HEK 293T cells and incubated with [α-32P]cap-labeled LRRK2 RNA. LRRK2 mRNA decapping was analyzed by one-dimensional thin layer chromatography.

LRRK2 [2] = assay: LRRK2 levels in human fibroblasts, Western blot; assay type: cell-based
Method: FIGS. 2A-2T depicts that AICAr, the precursor of ATIC substrate, regulates LRRK2 expression levels and neuronal toxicity. FIGS. 2A and 2B depict the overexpressed LRRK2 levels in HEK 293T cells upon AICAr treatment. HEK293 cells were transfected with MYC-LRRK2 and treated with or without 1 mM AICAr for 48 hours. LRRK2 levels were analyzed by Western blot. FIGS. 2C and 2D depict the LRRK2 expression levels in SH-SY5Y cells upon AICAr treatment. Human neuroblastoma SH-SY5Y cells were treated with or without 1 mM AICAr for 48 hours. LRRK2 expression levels were analyzed by Western blot. FIGS. 2E and 2F depict the overexpressed (3-glucocerebrosidase (GCase) levels upon AICAr treatment. HEK 293T cells were transfected with V5-GCase and treated with or without 1 mM AICAr for 48 hours. GCase levels were analyzed by Western blot. FIGS. 2G-2N depict the LRRK2 expression levels in primary neurons (FIG. 2G and FIG. 2H), microglia (FIG. 2I and FIG. 2J), astrocytes (FIG. 2K and FIG. 2L) and human fibroblasts (FIG. 2M and FIG. 2N) upon AICAr treatment. Mouse primary cortical neurons, microglia, astrocytes or human fibroblasts from a health control were treated with or without 1 mM AICAr for 48 hours. LRRK2 expression levels were analyzed by Western blot. […] LRRK2 expression levels were analyzed by Western blot. […] Images were quantified by ImageJ software. […]

For `NC(=O)c1ncn([C@@H]2O[C@H](CO)[C@@H](O)[C@H]2O)c1N` [AICAr, 5-aminoimidazole-4-carboxamide riboside], the “LRRK2 levels in astrocytes” value (LRRK2 [1]; mouse primary astrocytes) was “remained unchanged”, the “LRRK2 levels in neurons” value (LRRK2 [1]; mouse primary cortical neurons) was “significantly decrease” and the “LRRK2 levels in microglia” value (LRRK2 [1]; mouse primary microglia) was “significantly decrease”. For the same compound, the “endogenous levels of DCP1A” value (DCP1A) was “significantly increased” and the “LRRK2 levels in fibroblasts” value (LRRK2 [2]) was “significantly decrease”.
